The record followed here is publication PMC10350920, “Development of a 2,4-Diaminothiazole Series for the Treatment of Human African Trypanosomiasis Highlights the Importance of Static–Cidal Screening of Analogues” (Journal of Medicinal Chemistry, 2023).

Series [1] in a line: Mouse liver microsomal intrinsic clearance. In kind it is in vitro ADME. As to the method: Test compounds (0.5 μM) were incubated with female CD1 mouse liver microsomes (Xenotech LLC; 0.5 mg mL^–1 50 mM potassium phosphate buffer, pH 7.4), and the reaction started with the addition of excess NADPH (8 mg mL^–1 50 mM potassium phosphate buffer, pH 7.4). Immediately, at 0 min, and then at 3, 6, 9, 15, and 30 min, an aliquot (50 μL) of the incubation mixture was removed and mixed with acetonitrile (100 μL) to stop the reaction. The internal standard was added to all samples, the samples were centrifuged to sediment the precipitated protein, and the plates were then sealed prior to UPLC–MS/MS analysis using a Quattro Premier XE (Waters Corporation, USA). XLfit (IDBS, UK) was used to calculate the exponential decay and consequently the rate constant (k) from the ratio of the peak area of the test compound to the internal standard at each time point. The rate of intrinsic clearance (CLint) of each test compound was then calculated using the following calculation [drawing 3] where V (mL mg^–1 protein) is the incubation volume mg^–1 protein added and the microsomal protein yield is taken as 52.5 mg protein g^–1 liver. Verapamil (0.5 μM) was used as a positive control to confirm acceptable assay performance.

For series [2], the system named is BSF T. b. brucei “single marker” S427. The series can be described thus: Drug sensitivity assay with bloodstream-form T. brucei. It is filed as cell-based. The conditions noted are these: for EC50: mean values, number of replicates in parentheses; for reduction (loss, drop off) in potency against T. brucei relative to parent analogue: SAR comparison. The procedure:
(§1) Drug sensitivity assays with BSF T. b. brucei “single marker” S427 and human MRC-5 fibroblasts were conducted as previously described.[43]

Series [3] relates to human MRC-5 fibroblasts. The series is described as follows: Mammalian cell counter screen (MRC-5). In kind it is cell-based. The conditions noted are these: for SI: selectivity index (EC50 MRC5/EC50 T. brucei). As to the method:
as §1

Series [4] can be described thus: Mammalian cell counter screen (MRC-5). In kind it is cell-based, human. The conditions noted are these: human, MRC-5 fibroblasts; mean values; number of replicates in parentheses. As to the method: as §1
In general terms: Counterscreens check selectivity or assay interference.

In the case of `Nc1nc(NC2CCCCC2)sc1C(=O)c1ccccc1F` [Compound 27, (4-Amino-2-(cyclohexylamino)thiazol-5-yl)(2-fluorophenyl)methanone], the “CLint (mouse)” value in series [1] came out at 9.7 mL·min/g. In series [2] (Trypanosoma brucei), the EC50 (commonly the concentration needed to bring the measured effect to its halfway point) came out at 0.07 µM. Besides, in series [3], the SI stood at 29.
Consider `CCOCC(=O)c1sc(Nc2ccc(F)c(F)c2)nc1N` [Compound 44, 1-(4-Amino-2-((3,4-difluorophenyl)amino)thiazol-5-yl)-2-ethoxyethanone], for which the EC50 in series [2] (Trypanosoma brucei) was 0.15 µM; in series [4], over 50 µM. The SI in series [3] was determined as 333.
Take `Nc1nc(NC2CCCCC2)sc1C(=O)C1CCC1` [Compound 19, (4-Amino-2-(cyclohexylamino)thiazol-5-yl)cyclobutylmethanone]: the “CLint (mouse)” value in series [1] turned out to be 21 mL·min/g. The EC50 in series [2] (Trypanosoma brucei) stood at 0.37 µM; in series [4] it was 13 µM.
Regarding `Nc1nc(Nc2ccc(F)c(F)c2)sc1C(=O)COC(CF)CF` [Compound 48, 1-(4-Amino-2-((3,4-difluorophenyl)amino)thiazol-5-yl)-2-((1,3-difluoropropan-2-yl)oxy)ethanone], the values for the EC50 in series [2] (Trypanosoma brucei) and in series [4] were 0.05 µM and over 50 µM, respectively. In addition, in series [3], the SI turned out to be 1000.
Take `Nc1nc(NC2CCCCC2)sc1C(=O)c1ccc(F)cc1` [Compound 22, (4-Amino-2-(cyclohexylamino)thiazol-5-yl)(4-fluorophenyl)methanone]: in series [1], the “CLint (mouse)” value amounted to 4.9 mL·min/g. Besides, the values for the EC50 in series [2] (Trypanosoma brucei) and in series [4] were 0.05 µM and 21 µM, respectively. Moreover, the SI in series [3] came out at 420.
In the case of `CC(C)(F)CC(=O)c1sc(Nc2ccc(F)c(F)c2)nc1N` [Compound 41, 1-(4-Amino-2-((3,4-difluorophenyl)amino)thiazol-5-yl)-3-fluoro-3-methylbutan-1-one], the EC50 is 0.56 µM in series [2] (Trypanosoma brucei) and 46 µM in series [4]. The SI in series [3] is recorded as 82.
For `Nc1nc(NC2CCCCC2)sc1C(=O)c1ccc(C(F)(F)F)cc1` [Compound 23, (4-Amino-2-(cyclohexylamino)thiazol-5-yl)(4-(trifluoromethyl)phenyl)methanone], in series [1], the “CLint (mouse)” value was 1.4 mL·min/g. Also, the concentration giving a half-maximal response (EC50) turned out to be 0.66 µM in series [2] (Trypanosoma brucei) and 37 µM in series [4]. In series [3], this compound displayed an SI of 56.
The corresponding values for `COC(C)(C)C(=O)c1sc(NC2CCCCC2)nc1N` [Compound 17, 1-(4-Amino-2-(cyclohexylamino)thiazol-5-yl)-2-methoxy-2-methylpropan-1-one] are 3.8 mL·min/g, 1.9 µM, over 50 µM and over 26.
For the compound `Nc1nc(NC2CCCCC2)sc1C(=O)c1ccncc1` [Compound 25, (4-Amino-2-(cyclohexylamino)thiazol-5-yl)(pyridine-4-yl)methanone], the “CLint (mouse)” value in series [1] amounted to 4.1 mL·min/g. The 50% effective concentration (EC50) was 0.46 µM in series [2] (Trypanosoma brucei) and 19 µM in series [4]. In series [3], this compound displayed an SI of 41.
Take `COC(C)(C)CC(=O)c1sc(Nc2ccc(F)c(F)c2)nc1N` [Compound 39, 1-(4-Amino-2-((3,4-difluorophenyl)amino)thiazol-5-yl)-3-methoxy-3-methylbutan-1-one]: in series [1], the “CLint (mouse)” value is 6.1 mL·min/g. Further, the EC50 was 0.21 µM in series [2] (Trypanosoma brucei) and over 50 µM in series [4]. Further, the SI in series [3] is recorded as 238.
Regarding `Nc1nc(NC2CCCCC2)sc1C(=O)c1c(Cl)cccc1Cl` [Compound 21, (4-Amino-2-(cyclohexylamino)thiazol-5-yl)(2,6-dichlorophenyl)methanone], the “CLint (mouse)” value in series [1] is 4.1 mL·min/g. In addition, the results for the EC50 in series [2] (Trypanosoma brucei) and in series [4] were 0.14 µM and 4.8 µM, respectively. For the same compound, the SI in series [3] worked out at 34.
Take `Cc1ccc(C(=O)c2sc(NC3CCCCC3)nc2N)cc1` [Compound 24, (4-Amino-2-(cyclohexylamino)thiazol-5-yl)(p-tolyl)methanone]: the EC50 was 0.28 µM in series [2] (Trypanosoma brucei) and over 50 µM in series [4]. Further, the SI in series [3] is over 179.
Turning to `CC(C)(C)OCC(=O)c1sc(Nc2ccc(F)c(F)c2)nc1N` [Compound 43, 1-(4-Amino-2-((3,4-difluorophenyl)amino)thiazol-5-yl)-2-(tert-butoxy)ethanone], the 50% effective concentration (EC50) in series [2] (Trypanosoma brucei) is 0.1 µM; in series [4], over 50 µM. This compound had an SI in series [3] of 500.
Regarding `CC(C)CC(=O)c1sc(Nc2ccc(F)cc2)nc1N` [Compound 36, 1-(4-Amino-2-((4-fluorophenyl)amino)thiazol-5-yl)-3-methylbutan-1-one], the “CLint (mouse)” value in series [1] turned out to be 8.0 mL·min/g. For the same compound, the figures for the EC50 in series [2] (Trypanosoma brucei) and in series [4] were 0.11 µM and over 50 µM, respectively. In addition, the SI in series [3] is on record as over 455.
For the compound `Nc1nc(NC2CCCCC2)sc1C(=O)c1ccccc1C(F)(F)F` [Compound 28], in series [1], the “CLint (mouse)” value was 14 mL·min/g. Besides, the results for the EC50 in series [2] (Trypanosoma brucei) and in series [4] were 0.39 µM and 1.9 µM, respectively. Further, the SI in series [3] is given as 5.
As for `O=C(c1cnc(NC2CCCCC2)s1)C1CCCCC1` [Compound 32, Cyclohexyl(2-(cyclohexylamino)thiazole-5-yl)methanone], the “CLint (mouse)” value in series [1] turned out to be 15 mL·min/g. Besides, the “reduction (loss, drop off) in potency against T. brucei relative to parent analogue” value in series [2] was over 20 fold. For the same compound, the results for the EC50 in series [2] (Trypanosoma brucei) and in series [4] were 18 µM and 49 µM, respectively. For the same compound, in series [3], the SI is 3.
With `Nc1nc(Nc2ccc(F)c(F)c2)sc1C(=O)COC(C(F)(F)F)C(F)(F)F` [Compound 49, 1-(4-Amino-2-((3,4-diflurorophenyl)amino)thiazol-5-yl)-2-(((1,1,1,3,3,3)-hexafluoropropan-2-yl)oxy)ethanone], the EC50 in series [2] (Trypanosoma brucei) was 0.02 µM; in series [4], 13 µM. The SI in series [3] worked out at 650.
As for `Nc1nc(Nc2ccccc2)sc1C(=O)c1ccc(F)cc1` [Compound 35, (4-Amino-2-(phenylamino)thiazol-5-yl)(4-fluorophenyl)methanone], the “CLint (mouse)” value in series [1] is 7.3 mL·min/g. Further, the EC50 was 0.19 µM in series [2] (Trypanosoma brucei) and over 50 µM in series [4]. The SI in series [3] is over 263.
With “1-(4-Amino-2-((3-(difluoromethoxy)phenyl)amino)thiazol-5-yl)-2-((1,1,1-trifluoropropan-2-yl)oxy)ethanone [Compound 54]”, in series [2], the EC50 amounted to 0.02 µM. In series [3], this compound gave an EC50 of over 50 µM and an SI of 2500.
In the case of `Nc1nc(NC2CCCCC2)sc1C(=O)c1cc(F)cc(F)c1` [Compound 31, (4-Amino-2-(cyclohexylamino)thiazol-5-yl)(3,5-difluorophenyl)methanone], in series [1], the “CLint (mouse)” value worked out at 3.6 mL·min/g. Moreover, the EC50 in series [2] (Trypanosoma brucei) worked out at 0.16 µM; in series [4], 3.1 µM. For the same compound, in series [3], the SI stood at 19.
`CC(C)(C)CC(=O)c1sc(Nc2ccc(F)c(F)c2)nc1N` [Compound 40, 1-(4-Amino-2-((3,4-difluorophenyl)amino)thiazol-5-yl)-3,3-dimethylbutan-1-one]: the “CLint (mouse)” value in series [1] was found to be 4.6 mL·min/g. Also, the EC50 was 0.15 µM in series [2] (Trypanosoma brucei) and over 50 µM in series [4]. In series [3], this compound had an SI of over 333.
Regarding `Nc1nc(NC2CCCCC2)sc1C(=O)C1CCCCC1` [Compound 20, (4-Amino-2-(cyclohexylamino)thiazol-5-yl) (cyclohexyl)methanone], the “CLint (mouse)” value in series [1] stood at 8.9 mL·min/g. Besides, the EC50 in series [2] (Trypanosoma brucei) is 0.15 µM; in series [4] it was 41 µM. The SI in series [3] is 273.
With `O=C(c1cnc(NC2CCCCC2)s1)c1c(F)cccc1F` [Compound 33, (2-(Cyclohexylamino)thiazol-5-yl)(2,6-difluorophenyl)methanone], the “reduction (loss, drop off) in potency against T. brucei relative to parent analogue” value in series [2] was over 20 fold. Moreover, the results for the EC50 in series [2] (Trypanosoma brucei) and in series [4] were 15 µM and 47 µM, respectively. For the same compound, the SI in series [3] is listed as 3.
With `Nc1nc(NC2CCCCC2)sc1C(=O)c1ccc(F)cc1F` [Compound 29, (4-Amino-2-(cyclohexylamino)thiazol-5-yl)(2,4-difluorophenyl)methanone], the “CLint (mouse)” value in series [1] was found to be 6.5 mL·min/g. Moreover, the EC50 in series [2] (Trypanosoma brucei) stood at 0.05 µM; in series [4] it was 6.4 µM. The compound also yielded an SI in series [3] of 128.
On to `Nc1nc(NC2CCCCC2)sc1C(=O)c1ccc(F)c(F)c1` [Compound 30, (4-Amino-2-(cyclohexylamino)thiazol-5-yl)(3,4-difluorophenyl)methanone], for which, in series [1], the “CLint (mouse)” value was 12 mL·min/g. For the same compound, the EC50 is 0.05 µM in series [2] (Trypanosoma brucei) and 42 µM in series [4]. In addition, the SI in series [3] came to 840.
In the case of `CC(C)OCCC(=O)c1sc(Nc2ccc(F)c(F)c2)nc1N` [Compound 45, 1-(4-Amino-2-((3,4-difluorophenyl)amino)thiazol-5-yl)-3-isopropoxypropan-1-one], the results for the EC50 in series [2] (Trypanosoma brucei) and in series [4] were 2.6 µM and over 50 µM, respectively. This compound came in with an SI in series [3] of 19.
